Eight molecules from patent US5177204A, “Derivatives of 4-(2,4-difluorbiphenylyl)-2-methyl-4-oxobutanoic acid” (Vyzkumng, USTAV pro farmacii a biochemii, Statni podnik, priority 1990, dated 1993) can be followed below.

The test system of one series is male mice. As to the kind of experiment: Acute toxicity, mortality after a single dose (oral or intravenous). The format is in vivo. Particulars: 500 mg/kg, 10080 min; for % mortality: Table I, single oral dose of 500 mg/kg, day 7 after application. How it is done: (§1) ^a Acute oral toxicity of each substance was evaluated after a single
(§2) dose of 500 mg/kg in male mice. The mortality in % is for day 7 after
(§3) ^a Acute toxicity was evaluated after a single dose of substance 1764
(§4) in male mice, namely orally as an aqueous solution, and intravenously in
(§5) physiological saline solution. Mortality was followed up in groups of 10
(§6) animals for 7 days upon oral application and for 3 days upon intravenous

A short description of series [1]: Analgesic activity, intraperitoneal irritation with 0.7% acid. It counts as in vivo, male mice. The following applies: for Pain inhibition %: Table I, oral suspension in 0.5% methylcellulose, dose equimolar to flobufen 100 mg/kg, male mice; for Pain suppression %: Table II. Here is the method: (§7) ^b Antiinflammatory and analgesic activity was evaluated in compariso
(§8) with flobufen in equimolar doses, while flobufen was administered in a
(§9) dose of 20 mg/kg in the evaluation of antiinflammatory activity and in a
(§10) dose of 100 mg/kg in the evaluation of analgesic activity; the substances
(§11) were administered orally as a suspension in a 0.5% solution of
^e Analgesic activity was evaluated in the test of intraperitoneal
irritation with 0.7% acid in male mice according to Witkin L. et al.: J.
(§12) ^b for oral and intramuscular application an aqueous solution of
(§13) substance 17640 was used in said dose;
(§14) ^c the standard, i.e. 4(2,4-difluorobiphenylyl)-2-methyl-4-oxobutanic
(§15) acid was administered as a suspension in a 0.5% methylcellulose solution.

The nature of series [2]: Freund adjuvant test, inhibition of adjuvant oedema (FA), anti-inflammatory effect. The format is in vivo. The following applies: for FA inhibition %: Table I, oral suspension in 0.5% methylcellulose, dose equimolar to flobufen 20 mg/kg; for FA suppression %: Table II, oral. Here is the method: as §7, §8, §9, §10, §11
(§16) methylcellulose and the oedema was measured 1 hour upon application;
^d Antiinflammatory effect in the Freundadjuvant test was assessed
according to Horakova Z., Grimova J.: Cs. Fysiol. 17, 137 (1968);
as §12, §13, §14, §15

Series [3] is described as follows: Suppression of carragenine oedema (CE), anti-inflammatory effect. Particulars: for CE inhibition %: Table I, oral suspension in 0.5% methylcellulose, dose equimolar to flobufen 20 mg/kg, 1 hour upon application; for CE suppression %: Table II. The format is in vivo. How it is done:
as §7, §8, §9, §10, §11, §16
^c Suppression of the carraganine oedema was assessed according to
Winter J.: Proc. Soc. exptl. Biol. Med., 111, 544 (1962);
as §12, §13, §14, §15

Series [4] is described as follows: Acute toxicity, mortality after a single dose (oral or intravenous). The following applies: mouse, male mice; for mortality at 168 h: in vivo, po, 500 mg/kg, Table I, single oral dose of 500 mg/kg, day 7 after application. It counts as in vivo. Here is the method:
as §1, §2, §3, §4, §5, §6

Where a name gives a salt, the structure may show the parent alone.

Take `CC(CC(=O)c1ccc(-c2ccc(F)cc2F)cc1)C(=O)O` (stereo not drawn) [Flobufen, 4(2,4-difluorobiphenylyl)-2-methyl-4-oxobutanic acid, reference compound]: in the series with male mice, the “% mortality” value is reported as 50%. In the series on male mice (Table II, oral, dose 500, aqueous solution (flobufen: suspension in 0.5% methylcellulose), 7 days), the “Acute toxicity, % mortality” value is 50%. This molecule showed a Pain inhibition % in series [1] of 79%. The molecule further had a Pain suppression % in series [1] (oral, dose 100, suspension in 0.5% methylcellulose) of 79%. Besides, the FA inhibition % in series [2] came out at 65%. Besides, the FA suppression % in series [2] (dose 20, suspension in 0.5% methylcellulose) is 65%. In addition, the CE inhibition % in series [3] came to 46%. Also, the CE suppression % in series [3] (oral, dose 20, suspension in 0.5% methylcellulose) came to 46%.

For `CC(CC(=O)c1ccc(-c2ccc(F)cc2F)cc1)C(=O)O` (stereo not drawn) [VUFB 17629, Cyclohexylammonium Salt of 4-/2,4-Difluorobiphenylyl/-2-methyl-4-oxobutan Acid], the “% mortality” value with male mice was found to be 0%. This molecule also yielded a Pain inhibition % in series [1] of 58%. Also, the FA inhibition % in series [2] was found to be 53%. In addition, the CE inhibition % in series [3] came to 47%.

Regarding `CC(CC(=O)c1ccc(-c2ccc(F)cc2F)cc1)C(=O)O` (stereo not drawn) [VUFB 17640], in series [4] (physiological saline, iv, 100 mg/kg, Table II, parenteral (intravenous), dose 100, physiological saline, 3 days), the mortality at 72 h is 0%. Also, the Pain suppression % stood at 77% in series [1] (oral, dose 150, aqueous solution) and 48% in series [1] (parenteral (intramuscular), dose 80, aqueous solution). In addition, the FA suppression % in series [2] (dose 30, aqueous solution) is listed as 58%. For the same molecule, the CE suppression % was 46% in series [3] (oral, dose 30, aqueous solution); 21% in series [3] (parenteral (intramuscular), dose 1, aqueous solution); 40% in series [3] (parenteral (intramuscular), dose 10, aqueous solution).

The molecule `CCOC(=O)C(C)CC(=O)c1ccc(-c2ccc(F)cc2F)cc1` (stereo not drawn) [VUFB 18391] showed a mortality at 168 h in series [4] of 0%. This molecule also yielded a Pain inhibition % in series [1] of 38%. Further, the FA inhibition % in series [2] worked out at 55%. For the same molecule, the CE inhibition % in series [3] is 49%.

`CCOC(=O)CNC(=O)C(C)CC(=O)c1ccc(-c2ccc(F)cc2F)cc1` (stereo not drawn) [VUFB 18392] gave a mortality at 168 h in series [4] of 0%. The molecule further came in with a Pain inhibition % in series [1] of 41%. Also, the FA inhibition % in series [2] came to 51%. This molecule also registered a CE inhibition % in series [3] of 40%.

In series [4], `CCCCNC(=O)C(C)CC(=O)c1ccc(-c2ccc(F)cc2F)cc1` (stereo not drawn) [VUFB 18398, n-Butylamide of 4-/2,4-Difluorobiphenylyl/-2-methyl-4-oxobutan Acid] yielded a mortality at 168 h of 0%. In addition, the Pain inhibition % in series [1] turned out to be 33%. The FA inhibition % in series [2] is listed as 44%. This molecule also yielded a CE inhibition % in series [3] of 33%.

As for `CC(CC(=O)c1ccc(-c2ccc(F)cc2F)cc1)C(=O)O` (stereo not drawn) [VUFB 18404], the “% mortality” value in the series on male mice came out at 30%. In series [1], this molecule registered a Pain inhibition % of 35%. For the same molecule, in series [2], the FA inhibition % worked out at 51%. Also, the CE inhibition % in series [3] worked out at 44%.

Turning to `CC(CC(=O)c1ccc(-c2ccc(F)cc2F)cc1)C(=O)O` (stereo not drawn) [VUFB 18405, Potassium Salt of 4-/2,4-Difluorobiphenylyl/-2-methyl-4-oxobutan Acid], the “% mortality” value with male mice is on record as 20%. This molecule returned a Pain inhibition % in series [1] of 47%. Besides, in series [2], the FA inhibition % is 50%. The CE inhibition % in series [3] amounted to 39%.

The mortality is the share of the test organisms that died.
